In assay [1] the test system is Bifidobacterium breve M-16V. In words: Growth promoting effect on Bifidobacterium breve M-16V (turbidity at 600 nm after anaerobic culture). It is filed as cell-based. To be noted: 2′-FL 1.000 mass %, lactoferrin 0.000 mg/mL; glucose-free MRS, 37° C., 24 hours, n = 4. The protocol: DifcoMRS (BD) was dissolved in purified water as described in a package insert and sterilized at 115° C. for 15 minutes. L-Cysteine hydrochloride (Wako) was dissolved in purified water, filtered and sterilized, and was aseptically added to MRS medium cooled to room temperature after sterilization to have a final concentration of 0.05% by mass.
A reagent was dissolved in purified water with the composition shown in Table 1 and sterilized at 115° C. for 15 minutes. L-Cysteine hydrochloride (Wako) was dissolved in purified water, filtered and sterilized, and was aseptically added to MRS medium cooled to room temperature after sterilization to have a final concentration of 0.05% by mass.
Human milk oligosaccharide (2′-fucosyllactose (2′-FL) (Carbosynth)) and lactoferrin (produced by Morinaga Milk Industry Co., Ltd., iron content 15.8 mg/100 g) were dissolved in purified water, respectively. They were filtered and sterilized after dissolution.
150 μL of a pre-culture solution of Bifidobacterium breve M-16V was added to 3 mL of MRS medium prepared in (1) (i), and was anaerobically cultured at 37° C. for 16 hours. […]
(§1) Then, the cells were anaerobically cultured at 37° C. for 24 hours. After culturing, turbidity was measured at a wavelength of 600 nm using a microplate reader (Corona Electric) to evaluate the growth of bifidobacteria.

Assay [2] relates to Bifidobacterium infantis M-63. Kind of assay: Growth promoting effect on Bifidobacterium infantis M-63 (turbidity at 600 nm). To be noted: 2′-FL 1.000 mass %, lactoferrin 0.000 mg/mL; 37° C., 24 hours, n = 12. Type of assay: cell-based. How it is done: 150 μL of a pre-culture solution of Bifidobacterium breve M-16V was added to 3 mL of MRS medium prepared in (1) (i), and was anaerobically cultured at 37° C. for 16 hours. After culturing, the cells were separated from the culture solution by centrifuging at 1500×g for 5 minutes. The culture solution was removed, and the cells were resuspended in 3 mL of glucose-free MRS medium prepared in (1) (ii).
The pre-culture solution prepared in (2) was added to the glucose-free MRS medium prepared in (1) (ii) to have a final concentration of 1 v/v %. Further, the 2′-fucosyllactose (2′-FL) solution and the lactoferrin solution prepared in (1) (iii) were respectively added to have the final concentrations shown in Table 2, and were dispensed into a 96-well plate at 200 μL/well.
as §1
The same operation as in Example 1 was carried out except that the bifidobacteria were replaced with Bifidobacterium infantis M-63, and the growth was evaluated.

On to 2′-fucosyllactose [2′-FL], for which the values for the OD600 in assay [1] and in assay [2] were 0.076 and 0.440, respectively.
